Experimental data as given in PubChem BioAssay AID2060890 (Molecular Pharmacology Branch, DTP, NCI, 2025).

Tested on: LG0703-F948-PDC complex spheroid viability
Test: Anticancer human tumor LG0703-F948-PDC patient-derived lung adenocarcinoma cell line growth inhibition [RAS]
Details: for IC50: curve of first compound; for viability, T/C: stronger effect = lower value
How it was run: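 Agents were tested in combination matrices in half-log decrements from a top concentration at or near clinical Cmax (10 microM if undetermined). Targets were multi-cell spheroids of tumour lines plus HUVEC and MSC stromal cells.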

[1] = second compound 0.000949 µM, first compound 0.00316 µM
[2] = second compound 0.000949 µM, first compound 0.01 µM
[3] = second compound 0.000949 µM, first compound 0.0316 µM
[4] = second compound 0.000949 µM, first compound 0.1 µM
[5] = second compound 0.000949 µM, first compound 0.316 µM
[6] = second compound 0.000949 µM, first compound 1 µM
[7] = second compound 0.003 µM, first compound 0.00316 µM
[8] = second compound 0.003 µM, first compound 0.01 µM
[9] = second compound 0.003 µM, first compound 0.0316 µM
[10] = second compound 0.003 µM, first compound 0.1 µM
[11] = second compound 0.003 µM, first compound 0.316 µM
[12] = second compound 0.003 µM, first compound 1 µM
[13] = second compound 0.00949 µM, first compound 0.00316 µM
[14] = second compound 0.00949 µM, first compound 0.01 µM
[15] = second compound 0.00949 µM, first compound 0.0316 µM
[16] = second compound 0.00949 µM, first compound 0.1 µM
[17] = second compound 0.00949 µM, first compound 0.316 µM
[18] = second compound 0.00949 µM, first compound 1 µM
[19] = second compound 0.03 µM, first compound 0.00316 µM
[20] = second compound 0.03 µM, first compound 0.01 µM
[21] = second compound 0.03 µM, first compound 0.0316 µM
[22] = second compound 0.03 µM, first compound 0.1 µM
[23] = second compound 0.03 µM, first compound 0.316 µM
[24] = second compound 0.03 µM, first compound 1 µM
[25] = second compound 0.0949 µM, first compound 0.00316 µM
[26] = second compound 0.0949 µM, first compound 0.01 µM
[27] = second compound 0.0949 µM, first compound 0.0316 µM
[28] = second compound 0.0949 µM, first compound 0.1 µM
[29] = second compound 0.0949 µM, first compound 0.316 µM
[30] = second compound 0.0949 µM, first compound 1 µM
[31] = second compound 0.3 µM, first compound 0.00316 µM
[32] = second compound 0.3 µM, first compound 0.01 µM
[33] = second compound 0.3 µM, first compound 0.0316 µM
[34] = second compound 0.3 µM, first compound 0.1 µM
[35] = second compound 0.3 µM, first compound 0.316 µM
[36] = second compound 0.3 µM, first compound 1 µM
[37] = second compound 0.000949 µM, first compound 0.000949 µM
[38] = second compound 0.000949 µM, first compound 0.003 µM
[39] = second compound 0.000949 µM, first compound 0.00949 µM
[40] = second compound 0.000949 µM, first compound 0.03 µM
[41] = second compound 0.000949 µM, first compound 0.0949 µM
[42] = second compound 0.000949 µM, first compound 0.3 µM
[43] = second compound 0.003 µM, first compound 0.000949 µM
[44] = second compound 0.003 µM, first compound 0.003 µM
[45] = second compound 0.003 µM, first compound 0.00949 µM
[46] = second compound 0.003 µM, first compound 0.03 µM
[47] = second compound 0.003 µM, first compound 0.0949 µM
[48] = second compound 0.003 µM, first compound 0.3 µM
[49] = second compound 0.00949 µM, first compound 0.000949 µM
[50] = second compound 0.00949 µM, first compound 0.003 µM
[51] = second compound 0.00949 µM, first compound 0.00949 µM
[52] = second compound 0.00949 µM, first compound 0.03 µM
[53] = second compound 0.00949 µM, first compound 0.0949 µM
[54] = second compound 0.00949 µM, first compound 0.3 µM
[55] = second compound 0.03 µM, first compound 0.000949 µM
[56] = second compound 0.03 µM, first compound 0.003 µM
[57] = second compound 0.03 µM, first compound 0.00949 µM
[58] = second compound 0.03 µM, first compound 0.03 µM
[59] = second compound 0.03 µM, first compound 0.0949 µM
[60] = second compound 0.03 µM, first compound 0.3 µM
[61] = second compound 0.0949 µM, first compound 0.000949 µM
[62] = second compound 0.0949 µM, first compound 0.003 µM
[63] = second compound 0.0949 µM, first compound 0.00949 µM
[64] = second compound 0.0949 µM, first compound 0.03 µM
[65] = second compound 0.0949 µM, first compound 0.0949 µM
[66] = second compound 0.0949 µM, first compound 0.3 µM
[67] = second compound 0.3 µM, first compound 0.000949 µM
[68] = second compound 0.3 µM, first compound 0.003 µM
[69] = second compound 0.3 µM, first compound 0.00949 µM
[70] = second compound 0.3 µM, first compound 0.03 µM
[71] = second compound 0.3 µM, first compound 0.0949 µM
[72] = second compound 0.3 µM, first compound 0.3 µM
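Also: spheroids exposed to agents for 7 days.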
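For viability, T/C in this document: 100% = DMSO vehicle wells.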

## C=CC(=O)N1CCN(c2nc(OCC3CCCN3C)nc3c(F)c(-c4nc(N)cc(C)c4C(F)(F)F)c(Cl)cc23)C(C)C1 (stereo not drawn) + CCn1c(-c2cc(N3CCN(C)CC3)cnc2C(C)OC)c2c3cc(ccc31)-c1csc(n1)CC(NC(=O)C1CC1C)C(=O)N1CCCC(N1)C(=O)OCC(C)(C)C2
Second compound 0.000949 µM
  IC50: > 1000 nM
Second compound 0.003 µM
  IC50: < 3.16 nM
Second compound 0.00949 µM
  IC50: < 3.16 nM
Second compound 0.03 µM
  IC50: < 3.16 nM
Second compound 0.0949 µM
  IC50: < 3.16 nM
Second compound 0.3 µM
  IC50: < 3.16 nM
[1]
  viability, T/C: 68%
[2]
  viability, T/C: 75.1%
[3]
  viability, T/C: 71%
[4]
  viability, T/C: 66.5%
[5]
  viability, T/C: 69.9%
[6]
  viability, T/C: 62.6%
[7]
  viability, T/C: 45.5%
[8]
  viability, T/C: 40.5%
[9]
  viability, T/C: 43.4%
[10]
  viability, T/C: 44%
[11]
  viability, T/C: 47.3%
[12]
  viability, T/C: 49%
[13]
  viability, T/C: 24.9%
[14]
  viability, T/C: 26.1%
[15]
  viability, T/C: 27.9%
[16]
  viability, T/C: 17.7%
[17]
  viability, T/C: 25.9%
[18]
  viability, T/C: 25.5%
[19]
  viability, T/C: 13.4%
[20]
  viability, T/C: 14.6%
[21]
  viability, T/C: 16.2%
[22]
  viability, T/C: 13.1%
[23]
  viability, T/C: 18.8%
[24]
  viability, T/C: 13.9%
[25]
  viability, T/C: 14.2%
[26]
  viability, T/C: 16.3%
[27]
  viability, T/C: 11.3%
[28]
  viability, T/C: 11%
[29]
  viability, T/C: 15.2%
[30]
  viability, T/C: 15.9%
[31]
  viability, T/C: 10.4%
[32]
  viability, T/C: 8.07%
[33]
  viability, T/C: 9.51%
[34]
  viability, T/C: 11.9%
[35]
  viability, T/C: 11.5%
[36]
  viability, T/C: 10.8%

## CC1(C)CCC(Nc2ncc(C(F)(F)F)c(-c3c[nH]c4c(P(C)(C)=O)c(C#N)ccc34)n2)CN1 (stereo not drawn) + CCn1c(-c2cc(N3CCN(C)CC3)cnc2C(C)OC)c2c3cc(ccc31)-c1csc(n1)CC(NC(=O)C1CC1C)C(=O)N1CCCC(N1)C(=O)OCC(C)(C)C2
Second compound 0.000949 µM
  IC50: > 300 nM
Second compound 0.003 µM
  IC50: < 0.949 nM
Second compound 0.00949 µM
  IC50: < 0.949 nM
Second compound 0.03 µM
  IC50: < 0.949 nM
Second compound 0.0949 µM
  IC50: < 0.949 nM
Second compound 0.3 µM
  IC50: < 0.949 nM
[37]
  viability, T/C: 70.9%
[38]
  viability, T/C: 58.2%
[39]
  viability, T/C: 54.9%
[40]
  viability, T/C: 64.2%
[41]
  viability, T/C: 69.8%
[42]
  viability, T/C: 66%
[43]
  viability, T/C: 50.5%
[44]
  viability, T/C: 38.7%
[45]
  viability, T/C: 43.2%
[46]
  viability, T/C: 39%
[47]
  viability, T/C: 40.1%
[48]
  viability, T/C: 44.5%
[49]
  viability, T/C: 27.3%
[50]
  viability, T/C: 26.4%
[51]
  viability, T/C: 25.1%
[52]
  viability, T/C: 31.8%
[53]
  viability, T/C: 26.6%
[54]
  viability, T/C: 33.8%
[55]
  viability, T/C: 15.2%
[56]
  viability, T/C: 14.4%
[57]
  viability, T/C: 17.2%
[58]
  viability, T/C: 19.4%
[59]
  viability, T/C: 18.3%
[60]
  viability, T/C: 20.3%
[61]
  viability, T/C: 12.3%
[62]
  viability, T/C: 11.9%
[63]
  viability, T/C: 12.3%
[64]
  viability, T/C: 12.9%
[65]
  viability, T/C: 14.1%
[66]
  viability, T/C: 9.28%
[67]
  viability, T/C: 9.53%
[68]
  viability, T/C: 9.6%
[69]
  viability, T/C: 8.69%
[70]
  viability, T/C: 12.3%
[71]
  viability, T/C: 12.7%
[72]
  viability, T/C: 10.1%

## CCc1c2c(nc3ccc(O)cc13)-c1cc3c(c(=O)n1C2)COC(=O)[C@]3(O)CC + CCn1c(-c2cc(N3CCN(C)CC3)cnc2C(C)OC)c2c3cc(ccc31)-c1csc(n1)CC(NC(=O)C1CC1C)C(=O)N1CCCC(N1)C(=O)OCC(C)(C)C2
Second compound 0.000949 µM
  IC50: 68.2 nM
Second compound 0.003 µM
  IC50: < 0.949 nM
Second compound 0.00949 µM
  IC50: < 0.949 nM
Second compound 0.03 µM
  IC50: < 0.949 nM
Second compound 0.0949 µM
  IC50: < 0.949 nM
Second compound 0.3 µM
  IC50: < 0.949 nM
[37]
  viability, T/C: 74.3%
[38]
  viability, T/C: 84.5%
[39]
  viability, T/C: 54.4%
[40]
  viability, T/C: 62%
[41]
  viability, T/C: 49.7%
[42]
  viability, T/C: 24.4%
[43]
  viability, T/C: 46.3%
[44]
  viability, T/C: 44.4%
[45]
  viability, T/C: 46%
[46]
  viability, T/C: 40.1%
[47]
  viability, T/C: 31.9%
[48]
  viability, T/C: 20%
[49]
  viability, T/C: 25.6%
[50]
  viability, T/C: 19%
[51]
  viability, T/C: 19.7%
[52]
  viability, T/C: 17%
[53]
  viability, T/C: 17.2%
[54]
  viability, T/C: 11.3%
[55]
  viability, T/C: 13.3%
[56]
  viability, T/C: 17.8%
[57]
  viability, T/C: 13.5%
[58]
  viability, T/C: 15.7%
[59]
  viability, T/C: 10.4%
[60]
  viability, T/C: 9.39%
[61]
  viability, T/C: 14.1%
[62]
  viability, T/C: 12.5%
[63]
  viability, T/C: 9.68%
[64]
  viability, T/C: 9.08%
[65]
  viability, T/C: 12.3%
[66]
  viability, T/C: 9.68%
[67]
  viability, T/C: 11.7%
[68]
  viability, T/C: 9.88%
[69]
  viability, T/C: 8.36%
[70]
  viability, T/C: 8.45%
[71]
  viability, T/C: 7.32%
[72]
  viability, T/C: 4.88%

## C=CC(=O)Nc1cc(Nc2nccc(-c3cn(C)c4ccccc34)n2)c(OC)cc1N(C)CCN(C)C + CCn1c(-c2cccnc2C(C)OC)c2c3cc(ccc31)N1CCOC(CC(NC(=O)C(C(C)C)N(C)C(=O)C3(F)CCN(C(=O)C#CC(C)(C)N(C)C)CC3)C(=O)N3CCCC(N3)C(=O)OCC(C)(C)C2)C1
Second compound 0.000949 µM
  IC50: 13.1 nM
Second compound 0.003 µM
  IC50: 13.9 nM
Second compound 0.00949 µM
  IC50: 12.1 nM
Second compound 0.03 µM
  IC50: 9.92 nM
Second compound 0.0949 µM
  IC50: 4.89 nM
Second compound 0.3 µM
  IC50: < 3.16 nM
[1]
  viability, T/C: 78.5%
[2]
  viability, T/C: 56.9%
[3]
  viability, T/C: 27.3%
[4]
  viability, T/C: 20.5%
[5]
  viability, T/C: 19.1%
[6]
  viability, T/C: 13.9%
[7]
  viability, T/C: 88.6%
[8]
  viability, T/C: 57.5%
[9]
  viability, T/C: 31.1%
[10]
  viability, T/C: 21.5%
[11]
  viability, T/C: 16.2%
[12]
  viability, T/C: 15.6%
[13]
  viability, T/C: 83.4%
[14]
  viability, T/C: 55.6%
[15]
  viability, T/C: 22.3%
[16]
  viability, T/C: 18.5%
[17]
  viability, T/C: 19.7%
[18]
  viability, T/C: 15.2%
[19]
  viability, T/C: 82.6%
[20]
  viability, T/C: 49.6%
[21]
  viability, T/C: 26.6%
[22]
  viability, T/C: 15.5%
[23]
  viability, T/C: 17.4%
[24]
  viability, T/C: 14.4%
[25]
  viability, T/C: 60.2%
[26]
  viability, T/C: 33.1%
[27]
  viability, T/C: 21.2%
[28]
  viability, T/C: 14.9%
[29]
  viability, T/C: 13.9%
[30]
  viability, T/C: 12.1%
[31]
  viability, T/C: 29.1%
[32]
  viability, T/C: 17.5%
[33]
  viability, T/C: 9.89%
[34]
  viability, T/C: 9.16%
[35]
  viability, T/C: 9.3%
[36]
  viability, T/C: 13.5%
